Data taken from patent US20150313228A1, “SYNERGISTIC HERBICIDAL COMBINATIONS AND METHODS OF USE” (priority 2012, published 2015).

What was measured:
Palmer amaranth = assay: Post-emergence application in Palmer amaranth under greenhouse conditions (Example 7); format: in vivo; details: 24 days after application
Description: (§1) The following testing protocol was employed to evaluate the post-emergence application of herbicides and herbicide combinations as described in the following examples unless otherwise specified. The weed species to be treated were planted in 3.5 inch pots containing redi-earth potting mix and grown under greenhouse conditions. When the weed species reached a height of about four inches, herbicide was applied at the specified application rate using a track sprayer with a flat even nozzle type, 9501E nozzle size, and spray pressure of 165 kPa. After the application of the herbicide(s), the pots were only sub-irrigated as needed. Throughout the test period, temperature was maintained from about 20° C. to about 30° C. and relative humidity was maintained at about 30%. The plants were rated visually and percentage of weed control was determined for each treatment at 15 to 21 days after herbicide application.
(§2) Post-emergence application of several herbicides and herbicide combinations was evaluated in Palmer amaranth under greenhouse conditions. The plants were rated visually and percentage of weed control was determined at 24 days after herbicide application. The herbicides and herbicide combinations evaluated are listed in Table 7-A below together with the corresponding percent control data. The data represent an average value (n=6).
The results of the analysis are reported below in Table 7-B (glyphosate+dicamba), Table 7-C(glyphosate+metribuzin), and Table 7-D (dicamba+metribuzin).

velvetleaf = assay: Post-emergence application in velvetleaf under greenhouse conditions (Example 8); format: in vivo
Description: as §1
as §2, with “velvetleaf” for “Palmer amaranth”, “8-A” for “7-A”
The results of the analysis are reported below in Table 8-B (glyphosate+dicamba), Table 8-C(glyphosate+metribuzin), and Table 8-D (dicamba+metribuzin).

O=C(O)CNCP(=O)(O)O [Glyphosate]
PERCENT CONTROL (Palmer amaranth; 560 g/ha): 20.0%
PERCENT CONTROL (Palmer amaranth; 1120 g/ha): 50.0%
PERCENT CONTROL (ACTUAL) (velvetleaf; 560 g/ha, 24 days after application): 81.0%
PERCENT CONTROL (ACTUAL) (velvetleaf; 1120 g/ha, 24 days after application): 100.0%
PERCENT CONTROL (ACTUAL) (velvetleaf; Table 8-C, velvetleaf, 24 days, dose 560 g/ha): 81.0%
PERCENT CONTROL (ACTUAL) (velvetleaf; Table 8-C, velvetleaf, 24 days, dose 1120 g/ha): 100.0%
